Like-named read-outs stand apart in the source and are kept apart here.
How the values were obtained:
HsHexB = settings: read-out: Ki against HsHexB, cited from earlier work
hOGA = settings: read-out: Ki against hOGA, cited from earlier work
[1] = target: T1, human β-N-acetylhexosaminidase B (HsHexB) (Homo sapiens, UniProt P07686); experiment: Enzyme inhibitory activity test against HsHexB (4-MU-GlcNAc substrate, end-point fluorescence; Dixon plots for Ki); type: biochemical; settings: pH 4.5
T1 construct: made in house; host or cells: Pichia pastoris
T1 sequence (P07686 122-556): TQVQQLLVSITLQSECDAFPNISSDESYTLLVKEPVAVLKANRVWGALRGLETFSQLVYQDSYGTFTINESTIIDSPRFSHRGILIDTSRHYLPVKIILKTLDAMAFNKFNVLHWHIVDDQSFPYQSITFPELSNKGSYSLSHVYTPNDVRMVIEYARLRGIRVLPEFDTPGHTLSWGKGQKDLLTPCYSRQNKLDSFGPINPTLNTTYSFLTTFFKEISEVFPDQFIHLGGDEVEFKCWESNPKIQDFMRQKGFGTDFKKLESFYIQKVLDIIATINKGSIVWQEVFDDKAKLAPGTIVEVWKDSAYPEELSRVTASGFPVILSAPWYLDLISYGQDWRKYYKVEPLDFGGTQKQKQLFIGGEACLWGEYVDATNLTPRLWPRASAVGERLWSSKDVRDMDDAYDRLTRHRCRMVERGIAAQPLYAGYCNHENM
Procedure: (§1) Human O-GlcNAcase (hOGA) was expressed in Escherichia coli BL21(DE3) and purified according to previous methods (Kong et al., [2016]). Human β-N-acetylhexosaminidase B (HsHexB) was overexpressed in Pichia pastoris and then purified as described previously (Shen et al., [2018a]).
(§2) All target compounds were evaluated for their inhibitory activities against hOGA and HsHexB in end-point experiments. 4-Methylumbelliferyl N-acetyl-β-D-glucosaminide (4-MU-GlcNAc) was used as substrate. In a final assay volume of 100 μL, inhibitor and substrate (40 μM) were mixed with Britton-Robinson buffer (hOGA, pH 6.5; HsHexB, pH 4.5) and enzyme; then, the assay components were incubated at 30°C for 30 min. Subsequently, the enzymatic reaction was terminated by the addition of 100 μL 0.5 M Na2CO3 solution. The fluorescence of the liberated 4-methylumbelliferone (Mu) was quantified at an excitation of 366 nm and emission of 445 nm on a Varioskan Flash microplate reader (Thermo Fisher Scientific, USA). To determine the inhibition constant (Ki), Dixon plots were performed by changing the concentration of the 4-MU-GlcNAc (40, 20, and 10 μM).

human O-GlcNAcase (hOGA) = target: T2, human O-GlcNAcase (hOGA) (Homo sapiens, UniProt O60502); experiment: Enzyme inhibitory activity test against hOGA (4-MU-GlcNAc substrate, end-point fluorescence; Dixon plots for Ki); type: biochemical; settings: pH 6.5
T2 construct: made in house; host or cells: Escherichia coli BL21(DE3)
T2 sequence (O60502 1-916): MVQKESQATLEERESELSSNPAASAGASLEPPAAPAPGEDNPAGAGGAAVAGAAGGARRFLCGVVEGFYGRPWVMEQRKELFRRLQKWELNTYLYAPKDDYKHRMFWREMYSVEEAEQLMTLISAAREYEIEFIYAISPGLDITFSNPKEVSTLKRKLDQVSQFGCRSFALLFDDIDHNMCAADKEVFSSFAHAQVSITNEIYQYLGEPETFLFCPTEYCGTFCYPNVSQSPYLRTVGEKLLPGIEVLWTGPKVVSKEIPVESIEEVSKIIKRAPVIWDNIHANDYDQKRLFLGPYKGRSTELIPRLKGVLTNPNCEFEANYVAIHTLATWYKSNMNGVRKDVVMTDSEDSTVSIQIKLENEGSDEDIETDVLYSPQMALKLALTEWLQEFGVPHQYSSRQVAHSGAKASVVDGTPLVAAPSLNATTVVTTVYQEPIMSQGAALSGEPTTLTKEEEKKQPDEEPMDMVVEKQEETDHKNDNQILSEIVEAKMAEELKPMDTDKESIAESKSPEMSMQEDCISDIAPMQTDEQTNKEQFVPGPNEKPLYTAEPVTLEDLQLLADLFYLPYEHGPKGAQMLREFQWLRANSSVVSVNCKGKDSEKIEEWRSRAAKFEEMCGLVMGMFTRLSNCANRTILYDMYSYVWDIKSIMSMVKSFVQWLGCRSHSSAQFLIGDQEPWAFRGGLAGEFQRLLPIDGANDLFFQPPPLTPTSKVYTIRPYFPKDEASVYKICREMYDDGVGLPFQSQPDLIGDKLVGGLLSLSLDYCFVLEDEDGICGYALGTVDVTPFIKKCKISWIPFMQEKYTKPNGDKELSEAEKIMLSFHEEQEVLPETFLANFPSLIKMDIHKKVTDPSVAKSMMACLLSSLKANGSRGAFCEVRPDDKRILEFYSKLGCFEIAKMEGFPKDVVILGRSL
Procedure: as §1, §2

HsHex = settings: read-out: Ki against HsHex, cited from earlier work
[2] = lead compounds 15b (1) and 5c (2) of previous research, ref Chen et al., 2018, Shen et al., 2018a
[3] = Dixon plots, 4-MU-GlcNAc 40, 20, 10 μM
[4] = 13r (3) of previous research, ref Shen et al., 2018b
[5] = GlcNAcstatin C, ref Dorfmueller et al., 2009
[6] = Gluco-nagstatin, ref Terinek and Vasella, 2005

## CC(=O)OC[C@H]1O[C@@H](SCC(=O)NCCCN2C(=O)c3cccc4c(N5CCCCC5)ccc(c34)C2=O)[C@@](O)(NC(=O)c2ccc(F)cc2)[C@@H](OC(C)=O)[C@@H]1OC(C)=O [Compound 1]
HsHexB; [2]
  Ki: 30.4 µM
hOGA; [2]
  Ki: 3.8 µM

## CC(=O)N[C@@H]1[C@@H](O)[C@H](O)[C@@H](CO)O[C@H]1SCC(=O)NCCCN1C(=O)c2cccc3cccc(c23)C1=O [Compound 2, reference compound]
[1]; 100 μM inhibitor, 40 μM 4-MU-GlcNAc, 30°C, 30 min, read-out: Inhibition rate at 100 μM (%) HsHexB
  inhibition at 100 µM: 45.5 ± 0.5%
[1]; [3]
  Ki: > 100 µM
HsHexB; [2]
  Ki: > 100 µM
hOGA; [2]
  Ki: 3.46 µM
Human O-GlcNAcase (hOGA); 100 μM inhibitor, 40 μM 4-MU-GlcNAc, 30°C, 30 min, read-out: Inhibition rate at 100 μM (%) hOGA
  inhibition at 100 µM: 97.6 ± 0.9%
Human O-GlcNAcase (hOGA); [3]
  Ki: 3.46 ± 0.11 µM

## CC(=O)N[C@@H]1[C@@H](O)[C@H](O)[C@@H](CO)O[C@H]1SCCNCCCN1C(=O)c2cccc3c(N4CCCCC4)ccc(c23)C1=O [Compound 3]
HsHexB; [4]
  Ki: > 100 µM
hOGA; [4]
  Ki: 0.6 µM

## CC(C)C(=O)N[C@H]1c2nc(CCc3ccccc3)cn2[C@H](CO)[C@@H](O)[C@@H]1O [GlcNAcstatin C]
HsHex; [5]
  Ki: 0.55 µM
hOGA; [5]
  Ki: 0.0044 µM

## CC(=O)N[C@H]1c2nc(CC(=O)O)cn2[C@H](CO)[C@@H](O)[C@@H]1O [Gluco-nagstatin]
HsHex; [6]
  Ki: 0.01 µM
hOGA; [6]
  Ki: 0.42 µM

## CCNC1=N[C@@H]2[C@@H](O)[C@H](O)[C@@H](CO)O[C@@H]2S1 [Thiamet-G]
HsHex; Thiamet-G, ref Yuzwa et al., 2008
  Ki: 750 µM
